For 39 compounds, EC50 results are on record in patent publication US11969423B2, “Compounds” (GLAXOSMITHKLINE INTELLECTUAL PROPERTY DEVELOPMENT LIMITED, priority 2017, dated 2024).

SMILES strings stand for the structures.

This experiment has as its system M. tuberculosis W4-E1-GFP (Mutant). Format: cell-based, Mycobacterium tuberculosis. The following applies: read-out: EC50_Mutant.
For the compound `O=C(CCC(F)(F)F)N1CCC(c2cc(C(F)(F)F)ccn2)CC1` [Example 6, 4,4,4-trifluoro-1-[4-[4-(trifluoromethyl)-2-pyridyl]-1-piperidyl]butan-1-one], the EC50 was 50 to 250 nM. Regarding `O=C(CCC(F)(F)F)N1CCC(c2cccc(C(F)(F)F)n2)CC1` [Example 8, 4,4,4-trifluoro-1-[4-[6-(trifluoromethyl)-2-pyridyl]-1-piperidyl]butan-1-one], the EC50 was in the range of 1000 to 10000 nM. Turning to `O=C(CCC(F)(F)F)N1CCC(c2ccc(F)cn2)CC1` [Example 17, 4,4,4-trifluoro-1-[4-(5-fluoro-2-pyridyl)-1-piperidyl]butan-1-one], the EC50 was in the range of 1000 to 10000 nM. As to `O=C(CCC(F)(F)F)N1CCC(c2cncc(C(F)(F)F)n2)CC1` [Example 24, 4,4,4-trifluoro-1-(4-(6-(trifluoromethyl)pyrazin-2-yl)piperidin-1-yl)butan-1-one], the EC50 fell in the range of 500 to 1000 nM.

`O=C(CCC(F)(F)F)N1CCC(c2cncc(C(F)(F)F)c2)CC1` [Example 7, 4,4,4-trifluoro-1-[4-[5-(trifluoromethyl)-3-pyridyl]-1-piperidyl]butan-1-one]: the EC50 is 50 to 250 nM.

Turning to `O=C(CCC(F)(F)F)N1CCC(F)(c2cccnc2)CC1` [Example 2, 4,4,4-trifluoro-1-[4-fluoro-4-(3-pyridyl)-1-piperidyl]butan-1-one], the EC50 was in the range of 500 to 1000 nM. `O=C(CCC(F)(F)F)N1CCC(c2ccnc(F)c2)CC1` [Example 20, 4,4,4-trifluoro-1-(4-(2-fluoropyridin-4-yl)piperidin-1-yl)butan-1-one]: the EC50 is 50 to 250 nM.

As to `O=C(CCC(F)(F)F)N1CCC(F)(c2cncc(Cl)n2)CC1` [Example 36, 1-(4-(6-chloropyrazin-2-yl)-4-fluoropiperidin-1-yl)-4,4,4-trifluorobutan-1-one], the EC50 lay in the range of 250 to 500 nM.

Regarding `O=C(CCC(F)(F)F)N1CCC(c2ccc(F)nc2)CC1` [Example 4, 4,4,4-trifluoro-1-[4-(6-fluoro-3-pyridyl)-1-piperidyl]butan-1-one], the EC50 fell in the range of 1000 to 10000 nM.

As for `O=C(CCC(F)(F)F)N1CCC(c2cnc(C(F)(F)F)cn2)CC1` [Example 21, 4,4,4-trifluoro-1-(4-(5-(trifluoromethyl)pyrazin-2-yl)piperidin-1-yl)butan-1-one], the EC50 is 1000 to 10000 nM. Turning to `O=C(CCC(F)(F)F)N1CCC(F)(c2cc(C(F)(F)F)ccn2)CC1` [Example 39, 4,4,4-trifluoro-1-[4-fluoro-4-[4-(trifluoromethyl)-2-pyridyl]-1-piperidyl]butan-1-one], the EC50 was 50 to 250 nM.

As for `O=C(CCC(F)(F)F)N1CCC(c2ccnc(C(F)(F)F)c2)CC1` [Example 18, 4,4,4-trifluoro-1-(4-(2-(trifluoromethyl)pyridin-4-yl)piperidin-1-yl)butan-1-one], the EC50 was less than 50 nM. The result for `O=C(CCC(F)(F)F)N1CCC(c2cccc(F)n2)CC1` [Example 9, 4,4,4-trifluoro-1-[4-(6-fluoro-2-pyridyl)-1-piperidyl]butan-1-one] reads 250 to 500 nM; that for `O=C(CCC(F)(F)F)N1CCC(c2cncc(Cl)n2)CC1` [Example 32, 1-(4-(6-chloropyrazin-2-yl)piperidin-1-yl)-4,4,4-trifluorobutan-1-one], 50 to 250 nM; that for `O=C(CCC(F)(F)F)N1CCC(c2cncnc2)CC1` [Example 16], 1000 to 10000 nM. For the compound `O=C(CCC(F)(F)F)N1CCC(c2ccnc(Cl)c2)CC1` [Example 25, 1-(4-(2-chloropyridin-4-yl)piperidin-1-yl)-4,4,4-trifluorobutan-1-one], the EC50 lay within 50 to 250 nM. The value for `O=C(CCC(F)(F)F)N1CCC(c2ccc(C(F)(F)F)nc2)CC1` [Example 5, 4,4,4-trifluoro-1-[4-[6-(trifluoromethyl)-3-pyridyl]-1-piperidyl]butan-1-one] was 1000 to 10000 nM; that for `COc1ccc(C2CCN(C(=O)CCC(F)(F)F)CC2)cn1` [Example 10, 4,4,4-trifluoro-1-[4-(6-methoxy-3-pyridyl)-1-piperidyl]butan-1-one] was 50 to 250 nM. Regarding `O=C(CCC(F)(F)F)N1CCC(c2ncccn2)CC1` [Example 28, 4,4,4-trifluoro-1-[4-(pyrimidin-2-yl)piperidin-1-yl]butan-1-one], the EC50 was 1000 to 10000 nM.

`Cc1cc(C2CCN(C(=O)CCC(F)(F)F)CC2)ccn1` [Example 22, 4,4,4-trifluoro-1-(4-(2-methylpyridin-4-yl)piperidin-1-yl)butan-1-one]: the EC50 fell in the range of 50 to 250 nM. `O=C(CCCC(F)(F)F)N1CCC(c2cncc(Cl)c2)CC1` [Example 31, 1-(4-(5-chloropyridin-3-yl)piperidin-1-yl)-5,5,5-trifluoropentan-1-one]: the EC50 fell in the range of 250 to 500 nM. `O=C(CCC(F)(F)F)N1CCC(F)(c2ccccn2)CC1` [Example 33, 4,4,4-trifluoro-1-(4-fluoro-4-(pyridin-2-yl)piperidin-1-yl)butan-1-one]: the EC50 is 50 to 250 nM. For `O=C(CCC(F)(F)F)N1CCC(c2cncc(Cl)c2)C1` (stereo not drawn) [Example 38, 1-(3-(5-chloropyridin-3-yl)pyrrolidin-1-yl)-4,4,4-trifluorobutan-1-one], the EC50 is less than 50 nM. Turning to `O=C(CCC(F)(F)F)N1CCC(F)(c2ccnc(Cl)c2)CC1` [Example 41], the EC50 was less than 50 nM.

Regarding `O=C(CCC(F)(F)F)N1CCC(c2ccncc2F)CC1` [Example 26, 4,4,4-trifluoro-1-(4-(3-fluoropyridin-4-yl)piperidin-1-yl)butan-1-one], the EC50 lay in the range of 500 to 1000 nM. The value for `O=C(CCC(F)(F)F)N1CCC(c2cncc(Cl)c2)CC1` [Example 30, 1-(4-(5-chloropyridin-3-yl)piperidin-1-yl)-4,4,4-trifluorobutan-1-one] was 50 to 250 nM; that for `COc1cncc(C2CCN(C(=O)CCC(F)(F)F)CC2)c1` [Example 12, 4,4,4-trifluoro-1-[4-(5-methoxy-3-pyridyl)-1-piperidyl]butan-1-one] was 500 to 1000 nM; that for `O=C(CCC(F)(F)F)N1CCC(c2cccnc2C(F)(F)F)CC1` [Example 11, 4,4,4-trifluoro-1-[4-[2-(trifluoromethyl)-3-pyridyl]-1-piperidyl]butan-1-one] was 1000 to 10000 nM. For `O=C(CCC(F)(F)F)N1CCC(F)(c2ccnc(C(F)(F)F)c2)CC1` [Example 35, 4,4,4-trifluoro-1-(4-fluoro-4-(2-(trifluoromethyl)pyridin-4-yl)piperidin-1-yl)butan-1-one], the EC50 was less than 50 nM.

As to `O=C(CCC(F)(F)F)N1CCC(c2nccc(C(F)(F)F)n2)CC1` [Example 15], the EC50 was in the range of 1000 to 10000 nM. For `O=C(CCC(F)(F)F)N1CCC(c2cnccn2)CC1` [Example 1, 4,4,4-trifluoro-1-(4-pyrazin-2-yl-1-piperidyl)butan-1-one], the EC50 was 1000 to 10000 nM. Turning to `O=C(CCC(F)(F)F)N1CCC(c2ccc(F)nc2F)CC1` [Example 14, 1-[4-(2,6-difluoro-3-pyridyl)-1-piperidyl]-4,4,4-trifluoro-butan-1-one], the EC50 fell in the range of 50 to 250 nM. The result for `O=C(CCC(F)(F)F)N1CCC(c2cnc(F)c(F)c2)CC1` [Example 23, 1-(4-(5,6-difluoropyridin-3-yl)piperidin-1-yl)-4,4,4-trifluorobutan-1-one] reads 50 to 250 nM. In the case of `O=C(CCC(F)(F)F)N1CCC(F)(c2ccnc(F)c2)CC1` [Example 37, 4,4,4-trifluoro-1-(4-fluoro-4-(2-fluoropyridin-4-yl)piperidin-1-yl)butan-1-one], the EC50 was less than 50 nM. Consider `O=C(CCC(F)(F)F)N1CCC(F)(c2cncc(Cl)c2)CC1` [Example 29, 1-(4-(5-chloropyridin-3-yl)-4-fluoropiperidin-1-yl)-4,4,4-trifluorobutan-1-one], for which the EC50 was less than 50 nM. On to `O=C(CCC(F)(F)F)N1CCC(F)(c2cncc(C(F)(F)F)c2)CC1` [Example 34, 4,4,4-trifluoro-1-(4-fluoro-4-(5-(trifluoromethyl)pyridin-3-yl)piperidin-1-yl)butan-1-one], for which the EC50 was less than 50 nM.

As for `O=C(CCC(F)(F)F)N1CCC(F)(c2ccc(F)nc2)CC1` [Example 40], the EC50 lay in the range of 50 to 250 nM. For `O=C(CCC(F)(F)F)N1CCC(c2cccc(Cl)n2)CC1` [Example 27, 1-(4-(6-chloropyridin-2-yl)piperidin-1-yl)-4,4,4-trifluorobutan-1-one], the EC50 lay within 50 to 250 nM.

As to `O=C(CCC(F)(F)F)N1CCC(c2cncc(F)c2)CC1` [Example 3, 4,4,4-trifluoro-1-[4-(5-fluoro-3-pyridyl)-1-piperidyl]butan-1-one], the EC50 was in the range of 1000 to 10000 nM.
